This is an account of results in patent publication US12172990B2 (Constellation Pharmaceuticals, Inc., priority 2018, dated 2024).

In test [1] the target is human TREX2 (residues M44-A279) (Homo sapiens (Human), UniProt Q9BQ50). In words: TREX2 Biochemical Assay (fluorescence assay measuring degradation of dsDNA substrate). To be noted: 2.5 nM TREX2, 60 nM dsDNA substrate, 25 minutes at room temperature. The procedure:
Degradation of the dsDNA liberates free fluorophore to produce a fluorescent signal. Specifically, 7.5 μL of N-terminally His-Tev tagged human TREX2 (residues M44-A279, expressed in E. coli and purified in house) in reaction buffer (50 mM Tris (pH 7.4), 150 mM NaCl, 2 mM DTT, 0.1 mg/mL BSA, 0.01% (v/v) Tween-20 and 100 mM MgCl2) was added to a 384-well Black ProxiPlate Plus (Perkin Elmer) which already contained compound (150 nL) at varying concentrations as a 10 point dose-response in DMSO. To this was added 7.5 μL of dsDNA substrate (Strand A: 5′ TEX615/GCT AGG CAG 3′; Strand B: 5′ CTG CCT AGC/IAbRQSp (IDT)) in reaction buffer. Final concentrations were 2.5 nM TREX2, 60 nM dsDNA substrate in reaction buffer with 1.0% DMSO (v/v). After 25 minutes at room temperature, reactions were quenched by the addition of 5 μL of stop buffer (same as reaction buffer plus 200 mM EDTA). Final concentrations in the quenched reaction mixture were […] TREX2, 45 nM DNA and 50 mM EDTA in a volume of 20 μL. After a 5-minute incubation at room temperature, plates were read in a laser sourced Envision (Perkin-Elmer), measuring fluorescence at 615 nm following excitation w/570 nm light. IC50 values were calculated by comparing the measured fluorescence at 615 nm ratio relative to control wells pre-quenched w/stop buffer (100% inhibition) and no inhibitor (0% inhibition) controls as using non-linear least square four parameter fits and either Genedata or GraphPad Prism (GraphPad Software, Inc.).

Another test concerns the target full length human TREX1 (Homo sapiens (Human), UniProt Q9NSU2). In words: TREX1 Biochemical Assay (fluorescence assay measuring degradation of dsDNA substrate). The note with it: 150 pM TREX1, 60 nM dsDNA substrate, 25 minutes at room temperature. How it is done:
Degradation of the dsDNA liberates free fluorophore to produce a fluorescent signal. Specifically, 7.5 μL of N-terminally His-Tev tagged full length human TREX1 (expressed in E. coli and purified in house) in reaction buffer (50 mM Tris (pH 7.4), 150 mM NaCl, 2 mM DTT, 0.1 mg/mL BSA, 0.01% (v/v) Tween-20 and 100 mM MgCl2 were added to a 384-well Black ProxiPlate Plus (Perkin Elmer) which already contained compound (150 nL) at varying concentrations as a 10 point dose-response in DMSO. To this was added 7.5 μL of dsDNA substrate (Strand A: 5′ TEX615/GCT AGG CAG 3′; Strand B: 5′ CTG CCT AGC/IAbRQSp (Integrated DNA Technologies)) in reaction buffer. Final concentrations were 150 pM TREX1, 60 nM dsDNA substrate in reaction buffer with 1.0% DMSO (v/v). After 25 minutes at room temperature, reactions were quenched by the addition of 5 μL of stop buffer (same as reaction buffer plus 200 mM EDTA). Final concentrations in the quenched reaction were 112.5 pM TREX1, 45 nM DNA and 50 mM EDTA in a volume of 20 μL. After a 5-minute incubation at room temperature, plates were read in a laser sourced Envision (Perkin-Elmer), measuring fluorescence at 615 nm following excitation w/570 nm light. IC50 values were calculated by comparing the measured fluorescence at 615 nm ratio relative to control wells pre-quenched w/stop buffer (100% inhibition) and no inhibitor (0% inhibition) controls as using non-linear least square four parameter fits and either Genedata or GraphPad Prism (GraphPad Software, Inc.).

Where only a bound is given, the exact number is not on record here.

In general, IC50 refers to the concentration that inhibits the measured activity by half. Low values mean greater potency in that assay, high ones weaker potency in that assay.

human TREX2 (residues M44-A279), sequence (Q9BQ50 whole entry, the tested form may be a part): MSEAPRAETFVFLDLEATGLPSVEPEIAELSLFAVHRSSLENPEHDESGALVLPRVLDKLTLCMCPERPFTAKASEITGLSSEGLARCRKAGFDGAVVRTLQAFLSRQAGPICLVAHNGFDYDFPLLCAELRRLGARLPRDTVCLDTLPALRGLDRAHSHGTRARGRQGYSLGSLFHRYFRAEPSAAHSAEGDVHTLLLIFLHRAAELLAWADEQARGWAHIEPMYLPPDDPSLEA
full length human TREX1, sequence (Q9NSU2 whole entry): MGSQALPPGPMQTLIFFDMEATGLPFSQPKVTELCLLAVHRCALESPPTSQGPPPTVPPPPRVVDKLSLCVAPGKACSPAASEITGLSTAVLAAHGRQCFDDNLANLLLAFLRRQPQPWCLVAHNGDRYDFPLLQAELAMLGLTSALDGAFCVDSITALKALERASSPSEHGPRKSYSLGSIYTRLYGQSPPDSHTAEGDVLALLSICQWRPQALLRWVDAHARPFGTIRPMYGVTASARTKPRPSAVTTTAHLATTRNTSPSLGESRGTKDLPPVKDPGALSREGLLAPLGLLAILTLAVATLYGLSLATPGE

For the compound `Cn1c(C2CCCN(C(=O)c3cccc(Cl)c3)C2)nc(C(=O)Nc2cnoc2)c(O)c1=O` (stereo not drawn) [Example 45, 2-(1-(3-chlorobenzoyl)piperidin-3-yl)-5-hydroxy-N-(isoxazol-4-yl)-1-methyl-6-oxo-1,6-dihydropyrimidine-4-carboxamide], the IC50 in test [1] is 1 to 10 µM; against full length human TREX1, under 0.1 µM.

Turning to `Cn1c(C2CCCN(C(=O)c3ccccc3Cl)C2)nc(C(=O)Nc2cnoc2)c(O)c1=O` (stereo not drawn) [Example 46, 2-(1-(2-chlorobenzoyl)piperidin-3-yl)-5-hydroxy-N-(isoxazol-4-yl)-1-methyl-6-oxo-1,6-dihydropyrimidine-4-carboxamide], the IC50 in test [1] was in the range of 10 to 100 µM; on full length human TREX1, 0.1 to 1 µM.

`COc1ccc(C(=O)N2CCCC(c3nc(C(=O)Nc4cnoc4)c(O)c(=O)n3C)C2)cc1` (stereo not drawn) [Example 47, 5-hydroxy-N-(isoxazol-4-yl)-2-(1-(4-methoxybenzoyl)piperidin-3-yl)-1-methyl-6-oxo-1,6-dihydropyrimidine-4-carboxamide]: the IC50 is 1 to 10 µM in test [1] and 0.1 to 1 µM against full length human TREX1.

Regarding `COc1cccc(C(=O)N2CCCC(c3nc(C(=O)Nc4cnoc4)c(O)c(=O)n3C)C2)c1` (stereo not drawn) [Example 48, 5-hydroxy-N-(isoxazol-4-yl)-2-(1-(3-methoxybenzoyl)piperidin-3-yl)-1-methyl-6-oxo-1,6-dihydropyrimidine-4-carboxamide], the 50% inhibitory concentration (IC50) in test [1] is 1 to 10 µM; at full length human TREX1 it was 0.1 to 1 µM.

Take `CN1CCN(c2nc(C(=O)Nc3cnoc3)c(O)c(=O)n2C)CC1` [Example 49, 5-hydroxy-N-(isoxazol-4-yl)-1-methyl-2-(4-methylpiperazin-1-yl)-6-oxo-1,6-dihydropyrimidine-4-carboxamide]: the figures for the IC50 (in test [1]; on full length human TREX1) were 10 to 100 µM and 0.1 to 1 µM, respectively.

In the case of `Cn1c(C2(Cc3ccccc3)CCCN(C(=O)OC(C)(C)C)C2)nc(C(=O)Nc2cnoc2)c(O)c1=O` (stereo not drawn) [Example 50, tert-butyl 3-benzyl-3-(5-hydroxy-4-(isoxazol-4-ylcarbamoyl)-1-methyl-6-oxo-1,6-dihydropyrimidin-2-yl)piperidine-1-carboxylate], the IC50 in test [1] is 10 to 100 µM; against full length human TREX1, 0.1 to 1 µM.

Turning to `Cc1cc(C(=O)O)cc(-c2nc(C(=O)Nc3cnoc3)c(O)c(=O)n2C)c1` [Example 51, 3-(5-hydroxy-4-(isoxazol-4-ylcarbamoyl)-1-methyl-6-oxo-1,6-dihydropyrimidin-2-yl)-5-methylbenzoic acid], the IC50 lay within 1 to 10 µM in test [1] and 0.1 to 1 µM at full length human TREX1.

On to `Cn1c(C2(COCc3ccccc3)CCCN(C(=O)OC(C)(C)C)C2)nc(C(=O)Nc2cnoc2)c(O)c1=O` (stereo not drawn) [Example 52, tert-butyl 3-((benzyloxy)methyl)-3-(5-hydroxy-4-(isoxazol-4-ylcarbamoyl)-1-methyl-6-oxo-1,6-dihydropyrimidin-2-yl)piperidine-1-carboxylate], for which the figures for the IC50 (in test [1]; against full length human TREX1) were 1 to 10 µM and 0.1 to 1 µM, respectively.

For the compound `COC(=O)c1cc(C)cc(-c2nc(C(=O)Nc3cnoc3)c(O)c(=O)n2C)c1` [Example 53, methyl 3-(5-hydroxy-4-(isoxazol-4-ylcarbamoyl)-1-methyl-6-oxo-1,6-dihydropyrimidin-2-yl)-5-methylbenzoate], the IC50 in test [1] is 1 to 10 µM; on full length human TREX1 it was 0.1 to 1 µM.

As to `Cc1cc(C(=O)NC2CCN(C)CC2)cc(-c2nc(C(=O)Nc3cnoc3)c(O)c(=O)n2C)c1` [Example 54, 5-hydroxy-N-(isoxazol-4-yl)-1-methyl-2-(3-methyl-5-((1-methylpiperidin-4-yl)carbamoyl)phenyl)-6-oxo-1,6-dihydropyrimidine-4-carboxamide], the IC50 in test [1] was in the range of 10 to 100 µM; at full length human TREX1, 0.1 to 1 µM.

For the compound `CNC(=O)c1cc(C)cc(-c2nc(C(=O)Nc3cnoc3)c(O)c(=O)n2C)c1` [Example 55, 5-hydroxy-N-(isoxazol-4-yl)-1-methyl-2-(3-methyl-5-(methylcarbamoyl)phenyl)-6-oxo-1,6-dihydropyrimidine-4-carboxamide], the IC50 in test [1] was 1 to 10 µM; against full length human TREX1, under 0.1 µM.

As for `Cn1c(C2CCCN(C(=O)C3CCC(=O)NC3)C2)nc(C(=O)Nc2cnoc2)c(O)c1=O` (stereo not drawn) [Example 56, 5-hydroxy-N-(isoxazol-4-yl)-1-methyl-6-oxo-2-(1-(6-oxopiperidine-3-carbonyl)piperidin-3-yl)-1,6-dihydropyrimidine-4-carboxamide], the IC50 was 10 to 100 µM in test [1] and 0.1 to 1 µM at full length human TREX1.

Consider `Cn1c(C2CCCN(S(=O)(=O)c3ccccc3)C2)nc(C(=O)Nc2cnoc2)c(O)c1=O` (stereo not drawn) [Example 57, 5-hydroxy-N-(isoxazol-4-yl)-1-methyl-6-oxo-2-(1-(phenylsulfonyl)piperidin-3-yl)-1,6-dihydropyrimidine-4-carboxamide], for which the values for the IC50 (in test [1]; against full length human TREX1) were 10 to 100 µM and 0.1 to 1 µM, respectively.

With `Cn1c(C2CCCN(C(=O)c3cncnc3)C2)nc(C(=O)Nc2cnoc2)c(O)c1=O` (stereo not drawn) [Example 58, 5-hydroxy-N-(isoxazol-4-yl)-1-methyl-6-oxo-2-(1-(pyrimidine-5-carbonyl)piperidin-3-yl)-1,6-dihydropyrimidine-4-carboxamide], the IC50 in test [1] was in the range of 1 to 10 µM; at full length human TREX1 it was 0.1 to 1 µM.

Regarding `Cn1c(C2CCCN(C(=O)c3ccc(Cl)cc3)C2)nc(C(=O)Nc2cnoc2)c(O)c1=O` (stereo not drawn) [Example 59, 2-(1-(4-chlorobenzoyl)piperidin-3-yl)-5-hydroxy-N-(isoxazol-4-yl)-1-methyl-6-oxo-1,6-dihydropyrimidine-4-carboxamide], the IC50 in test [1] fell in the range of 1 to 10 µM; on full length human TREX1, 0.1 to 1 µM.

On to `CN(C)CCCC(=O)N1CCCC(c2nc(C(=O)Nc3cnoc3)c(O)c(=O)n2C)C1` (stereo not drawn) [Example 60, 2-(1-(4-(dimethylamino)butanoyl)piperidin-3-yl)-5-hydroxy-N-(isoxazol-4-yl)-1-methyl-6-oxo-1,6-dihydropyrimidine-4-carboxamide], for which the IC50 in test [1] lay in the range of 10 to 100 µM; against full length human TREX1 it was 1 to 10 µM.

Consider `Cn1c(C2CCCN(C(=O)Cc3ccccc3)C2)nc(C(=O)Nc2cnoc2)c(O)c1=O` (stereo not drawn) [Example 61, 5-hydroxy-N-(isoxazol-4-yl)-1-methyl-6-oxo-2-(1-(2-phenylacetyl)piperidin-3-yl)-1,6-dihydropyrimidine-4-carboxamide], for which the IC50 lay in the range of 1 to 10 µM in test [1] and 0.1 to 1 µM against full length human TREX1.

Take `Cn1c(C2CCCN(C(=O)c3cccnc3)C2)nc(C(=O)Nc2cnoc2)c(O)c1=O` (stereo not drawn) [Example 62, 5-hydroxy-N-(isoxazol-4-yl)-1-methyl-2-(1-nicotinoylpiperidin-3-yl)-6-oxo-1,6-dihydropyrimidine-4-carboxamide]: the IC50 lay within 1 to 10 µM in test [1] and 0.1 to 1 µM against full length human TREX1.

Consider `Cn1c(C2CCCN(C(=O)c3ccncc3)C2)nc(C(=O)Nc2cnoc2)c(O)c1=O` (stereo not drawn) [Example 63, 5-hydroxy-2-(1-isonicotinoylpiperidin-3-yl)-N-(isoxazol-4-yl)-1-methyl-6-oxo-1,6-dihydropyrimidine-4-carboxamide], for which the IC50 was in the range of 1 to 10 µM in test [1] and 0.1 to 1 µM against full length human TREX1.

With `CC(=O)N1CCCC(c2nc(C(=O)Nc3cnoc3)c(O)c(=O)n2C)C1` (stereo not drawn) [Example 64, 2-(1-acetylpiperidin-3-yl)-5-hydroxy-N-(isoxazol-4-yl)-1-methyl-6-oxo-1,6-dihydropyrimidine-4-carboxamide], the IC50 lay in the range of 10 to 100 µM in test [1] and 0.1 to 1 µM on full length human TREX1.

For `Cn1c(C2CCCN(C(=O)Nc3ccccc3)C2)nc(C(=O)Nc2cnoc2)c(O)c1=O` (stereo not drawn) [Example 65, 5-hydroxy-N-(isoxazol-4-yl)-1-methyl-6-oxo-2-(1-(phenylcarbamoyl)piperidin-3-yl)-1,6-dihydropyrimidine-4-carboxamide], the IC50 in test [1] lay within 1 to 10 µM; on full length human TREX1, 0.1 to 1 µM.
